According to publication PMC10064984, “Anti-cyclooxygenase, anti-glycation, and anti-skin aging effect of Dendrobium officinale flowers’ aqueous extract and its phytochemical validation in aging” (Frontiers in Immunology, 2023):
“And” between values parts separate entries of the source, which are not always exact repeats. Identical values can stand only once. One block for each compound: values may come before it.

How the values were obtained:
Type in all cases: biochemical
DPPH· scavenging = conditions: mean ± SD, n = 3
[1] = Fluorescent AGEs formation in a BSA-fructose/glucose system; conditions: for inhibition of fluorescent AGEs formation (BSA-抗糖化), single replicate: individual replicate; for inhibition of fluorescent AGEs formation (BSA-抗糖化), 平均 (mean): mean of 3 replicates
Protocol: Glycated protein was prepared in vitro by incubating BSA in the presence of D-glucose (GLC) and D-fructose (FRC). The DOF extract and specific standards were dissolved in DMSO:water (1:4). […] The assay was performed in triplicate, and AG was used as a positive control. The percentage inhibition of fluorescent AGE formation was calculated using the following equation: […] Where IF sample is fluorescence intensity in the presence of samples and BSA, IF sample control is fluorescence intensity in the presence of samples without BSA, IF control is fluorescence intensity without samples, and IF blank control is fluorescence intensity without samples and BSA.

[2] = ABTS·+ decolourisation capacity; conditions: for IC50: mean ± SD, n = 3; for ABTS scavenging rate: 0.5mM series, replicate wells, listed as T21
Protocol: Fast colourimetric methods were slightly modified for the in vitro assessment of DPPH· scavenging ([19]), ABTS·+ decolourisation capacity ([20]), and total antioxidant capacity of FRAP ([21]). The stock solutions of derivatisation reagents were diluted as follows before measurement: DPPH was diluted with absolute ethanol until the absorbance was 0.8 ± 0.05 at λ = 517 nm. ABTS working solution was prepared with phosphate buffer (0.2 M, pH 7.4) to display absorbance of 0.8 ± 0.05 at λ = 729 nm, based on a previous study ([22]). The FRAP solution was prepared according to the instructions of the FRAP kit. Absorbances were measured using an automatic microplate reader (Molecular Group Ltd., USA), and all analyses were performed using 96-well plates. All measurements were performed in triplicate, and Trolox was used as a positive control.
For ABTS·+ decolourisation capacity, 100 μl of ABTS working solution was mixed with 200 μl of sample solution, and the absorbance was recorded after 10 min at 729 nm. Phosphate buffer (0.2 M, pH 7.4) was used as a negative control.
DPPH· and ABTS·+ radical scavenging activities of the tested sample were both calculated using the following formula:
% inhibition = (A control − A sample)/A control × 100
Where A control and A sample represent the absorbance of the control and test samples, respectively. The IC50 was calculated graphically from the dose-inhibition curves.

COX-2 = target: T1, COX-2 (Homo sapiens, UniProt P35354); test: Anti-COX-2 assay (COX-2 Inhibitor Screening Kit); conditions: for COX-2 inhibition: single replicates
T1 construct: purchased Beyotime S0168
T1 sequence (P35354 18-604): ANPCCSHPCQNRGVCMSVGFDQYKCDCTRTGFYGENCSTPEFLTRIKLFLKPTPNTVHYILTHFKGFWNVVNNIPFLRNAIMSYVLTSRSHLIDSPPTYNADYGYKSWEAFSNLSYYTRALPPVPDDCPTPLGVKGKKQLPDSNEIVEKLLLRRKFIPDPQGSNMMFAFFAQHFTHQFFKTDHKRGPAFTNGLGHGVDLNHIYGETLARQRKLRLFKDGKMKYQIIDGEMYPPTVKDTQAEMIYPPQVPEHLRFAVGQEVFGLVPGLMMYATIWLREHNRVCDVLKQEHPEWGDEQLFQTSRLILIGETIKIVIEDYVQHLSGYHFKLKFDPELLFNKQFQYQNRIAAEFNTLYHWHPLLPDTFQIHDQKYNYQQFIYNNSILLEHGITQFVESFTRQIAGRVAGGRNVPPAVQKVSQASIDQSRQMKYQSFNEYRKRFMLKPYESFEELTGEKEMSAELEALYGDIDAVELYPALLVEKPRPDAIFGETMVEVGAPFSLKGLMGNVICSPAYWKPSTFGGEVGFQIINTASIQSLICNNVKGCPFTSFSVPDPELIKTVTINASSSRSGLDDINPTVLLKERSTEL

[3] = FRAP total antioxidant capacity; conditions: lower part of sheet (compound series);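 note: colourimetric FRAP kit assay read as absorbance in 96-well plates, values as mM FeSO4 via standard curve, EC1 being sample concentration matching 1.0 mmol/L FeSO4, Trolox positive control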
[4] = mean ± SD, n = 3, read-out: BSA-glycation IC50

- IC50 (DPPH· scavenging): > 5000 µM
- IC50 [1, 4]: 276 ± 33 µM
- IC50 [2]: 34.31 ± 0.1 µM
- COX-2 inhibition (in words) (COX-2): no inhibitory effects
- COX-2 inhibition (COX-2; 3.125 μM, listed as T13, 3.125 µM): 9.26% and 13.01% and -4.90%
- COX-2 inhibition (COX-2; 6.25 μM, listed as T13, 6.25 µM): 7.55% and 7.65% and -2.11%
- COX-2 inhibition (COX-2; 12.5 μM, listed as T13, 12.5 µM): 5.53% and -11.45% and -30.89%
- COX-2 inhibition (COX-2; 25 μM, listed as T13, 25 µM): -6.59% and -8.12% and -23.58%
- COX-2 inhibition (COX-2; 50 μM, listed as T13, 50 µM): -22.46% and -22.25% and -29.37%
- COX-2 inhibition (COX-2; 100 μM, listed as T13, 100 µM): -33.58% and -17.93% and -41.32%
- COX-2 inhibition (COX-2; 200 μM, listed as T13, 200 µM): -24.47% and -35.20% and -49.99%
Compound: O=c1c(O[C@@H]2O[C@H](CO)[C@@H](O)[C@H](O)[C@H]2O)c(-c2ccc(O)cc2)oc2cc(O)cc(O)c12 [compound 31, Astragalin]
- inhibition of fluorescent AGEs formation (BSA-抗糖化), single replicate ([1]; 15.625 µM, listed as T13, 15.625 µM): 3.97% and 2.43% and 3.28%
- inhibition of fluorescent AGEs formation (BSA-抗糖化), 平均 (mean) ([1]; 15.625 µM): 3.23%
- inhibition of fluorescent AGEs formation (BSA-抗糖化), single replicate ([1]; 31.25 µM, listed as T13, 31.25 µM): 6.47% and 9.23% and 6.65%
- inhibition of fluorescent AGEs formation (BSA-抗糖化), 平均 (mean) ([1]; 31.25 µM): 7.45%
- inhibition of fluorescent AGEs formation (BSA-抗糖化), single replicate ([1]; 62.5 µM, listed as T13, 62.5 µM): 16.61% and 18.46% and 18.15%
- inhibition of fluorescent AGEs formation (BSA-抗糖化), 平均 (mean) ([1]; 62.5 µM): 17.74%
- inhibition of fluorescent AGEs formation (BSA-抗糖化), single replicate ([1]; 125 µM, listed as T13, 125 µM): 25.98% and 33.83% and 29.94%
- inhibition of fluorescent AGEs formation (BSA-抗糖化), 平均 (mean) ([1]; 125 µM): 29.92%
- inhibition of fluorescent AGEs formation (BSA-抗糖化), single replicate ([1]; 250 µM, listed as T13, 250 µM): 39.66% and 53.40% and 48.31%
- inhibition of fluorescent AGEs formation (BSA-抗糖化), 平均 (mean) ([1]; 250 µM): 47.12%
- inhibition of fluorescent AGEs formation (BSA-抗糖化), single replicate ([1]; 500 µM, listed as T13, 500 µM): 65.95% and 67.35% and 67.23%
- inhibition of fluorescent AGEs formation (BSA-抗糖化), 平均 (mean) ([1]; 500 µM): 66.84%
- inhibition of fluorescent AGEs formation (BSA-抗糖化), single replicate ([1]; 1000 µM, listed as T13, 1000 µM): 79.55% and 78.97% and 78.39%
- inhibition of fluorescent AGEs formation (BSA-抗糖化), 平均 (mean) ([1]; 1000 µM): 78.97%
- inhibition of fluorescent AGEs formation (BSA-抗糖化), single replicate ([1]; 2000 µM, listed as T13, 2000 µM): 89.49% and 89.99% and 89.93%
- inhibition of fluorescent AGEs formation (BSA-抗糖化), 平均 (mean) ([1]; 2000 µM): 89.80%
- inhibition of fluorescent AGEs formation (BSA-抗糖化), single replicate ([1]; 4000 µM (series head 'T9 4000µM', 2-fold dilutions), listed as T13): 94.89% and 93.91% and 94.80%
- inhibition of fluorescent AGEs formation (BSA-抗糖化), 平均 (mean) ([1]; 4000 µM): 94.53%
- FRAP EC1 [3]: >5000 µM

Compound: Neoschaftoside [compound 21]
- IC50 (DPPH· scavenging): > 5000 µM
- inhibition of fluorescent AGEs formation (BSA-抗糖化), single replicate ([1]; 15.625 µM): 0.054% and 0.23% and 1.18%
- inhibition of fluorescent AGEs formation (BSA-抗糖化), 平均 (mean) ([1]; 15.625 µM): 0.49%
- inhibition of fluorescent AGEs formation (BSA-抗糖化), single replicate ([1]; 31.25 µM): 5.09% and 4.69% and 3.66%
- inhibition of fluorescent AGEs formation (BSA-抗糖化), 平均 (mean) ([1]; 31.25 µM): 4.48%
- inhibition of fluorescent AGEs formation (BSA-抗糖化), single replicate ([1]; 62.5 µM): 7.25% and 9.67% and 10.17%
- inhibition of fluorescent AGEs formation (BSA-抗糖化), 平均 (mean) ([1]; 62.5 µM): 9.03%
- inhibition of fluorescent AGEs formation (BSA-抗糖化), single replicate ([1]; 125 µM): 20.04% and 20.34% and 19.73%
- inhibition of fluorescent AGEs formation (BSA-抗糖化), 平均 (mean) ([1]; 125 µM): 20.04%
- inhibition of fluorescent AGEs formation (BSA-抗糖化), single replicate ([1]; 250 µM): 36.81% and 35.45% and 36.08%
- inhibition of fluorescent AGEs formation (BSA-抗糖化), 平均 (mean) ([1]; 250 µM): 36.11%
- inhibition of fluorescent AGEs formation (BSA-抗糖化), single replicate ([1]; 500 µM): 54.95% and 55.05% and 56.69%
- inhibition of fluorescent AGEs formation (BSA-抗糖化), 平均 (mean) ([1]; 500 µM): 55.56%
- inhibition of fluorescent AGEs formation (BSA-抗糖化), single replicate ([1]; 1000 µM): 71.70% (2×) and 72.55%
- inhibition of fluorescent AGEs formation (BSA-抗糖化), 平均 (mean) ([1]; 1000 µM): 71.98%
- inhibition of fluorescent AGEs formation (BSA-抗糖化), single replicate ([1]; 2000 µM): 83.42% and 82.90% and 83.96%
- inhibition of fluorescent AGEs formation (BSA-抗糖化), 平均 (mean) ([1]; 2000 µM): 83.43%
- inhibition of fluorescent AGEs formation (BSA-抗糖化), single replicate ([1]; 4000 µM (series head 'T9 4000µM', 2-fold dilutions)): 91.13% and 89.60% and 90.19%
- inhibition of fluorescent AGEs formation (BSA-抗糖化), 平均 (mean) ([1]; 4000 µM): 90.31%
- IC50 ([1]; BSA anti-glycation, IC50 of each of 3 replicates, read-out: IC50, single replicate curve): 432 µM and 437 µM and 421 µM
- IC50 [1, 4]: 430 ± 8 µM
- ABTS scavenging rate ([2]; concentration 15.625 (unit not given)): 37.92% and 38.74% and 38.24%
- ABTS scavenging rate ([2]; concentration 31.25 (unit not given)): 60.76% and 61.20% and 60.99%
- ABTS scavenging rate ([2]; concentration 62.5 (unit not given)): 81.08% and 80.87% and 80.62%
- ABTS scavenging rate ([2]; concentration 125 (unit not given)): 92.61% and 92.60% and 92.36%
- ABTS scavenging rate ([2]; concentration 250 (unit not given)): 98.02% (2×) and 98.07%
- ABTS scavenging rate ([2]; concentration 500 (unit not given)): 99.70% and 99.73% and 99.67%
- IC50 [2]: 21.4 ± 0.24 µM
- COX-2 inhibition (in words) (COX-2): no inhibitory effects
- COX-2 inhibition (COX-2; 31.25 μM, listed as T21, 31.25 µM): -6.16% and -4.80% and 6.61%
- COX-2 inhibition (COX-2; 62.5 μM, listed as T21, 62.5 µM): 6.28% and 7.65% and 11.30%
- COX-2 inhibition (COX-2; 125 μM, listed as T21, 125 µM): 1.19% and -2.74% and 1.96%
- COX-2 inhibition (COX-2; 250 μM, listed as T21, 250 µM): 3.95% and 0.81% and 18.87%
- COX-2 inhibition (COX-2; 500 μM, listed as T21, 500 µM): -4.13% and -1.62% and 4.93%
- COX-2 inhibition (COX-2; 1000 μM, listed as T21, 1000 µM): -1.41% and 2.18% and 12.07%
- COX-2 inhibition (COX-2; 2000 μM (2mM), listed as T21): 51.51% and 49.86% and 47.92%
- FRAP EC1 [3]: >5000 µM

- IC50 (DPPH· scavenging): > 5000 µM
- IC50 [1, 4]: 256 ± 5.44 µM
- IC50 [2]: 96.4 ± 2.11 µM
- COX-2 inhibition (COX-2; 31.25 μM, listed as T6, 31.25 µM): -4.26%
- COX-2 inhibition (COX-2; 62.5 μM, listed as T6, 62.5 µM): -25.49% and -4.46%
- COX-2 inhibition (COX-2; 125 μM, listed as T6, 125 µM): -10.40%
- COX-2 inhibition (COX-2; 500 μM, listed as T6, 500 µM): -29.71% and -20.21%
- COX-2 inhibition (COX-2; 1000 μM, listed as T6, 1000 µM): -42.43% and -38.19%
Compound: O=c1cc(-c2ccc(O)cc2)oc2c(C3OC(CO)C(O)C(O)C3O)c(O)c(C3OCC(O)C(O)C3O)c(O)c12 (stereo not shown) [compound 14, Vicenin-1]
- FRAP EC1 [3]: >5000 µM
